In patent US8841312B2, “Fused pyridine, pyrimidine and triazine compounds as cell cycle inhibitors” (Amgen Inc., priority 2007, dated 2014):

What was measured:
Cdk4/CyclinD1 = Cdk4/CyclinD1 (Homo sapiens (Human), UniProt P11802); experiment: Cdk4 kinase inhibition assay with recombinant Cdk4/CyclinD1, Rb substrate, [33P]-ATP filter plate; format: biochemical; conditions: 25 μM ATP, read-out: Cdk 4 IC50
Summary of the method: (§1)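 Recombinant Cdk4/CyclinD1 or Cdk6/CyclinD3 phosphorylated Rb protein with [33P]-ATP for 1 h at room temperature. Protein was TCA-precipitated on filter plates and bound radioactivity counted. IC50 by nonlinear regression.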

Cdk6/CyclinD3 = Cdk6/CyclinD3 (Homo sapiens (Human), UniProt Q00534); experiment: Cdk6 kinase inhibition assay with recombinant Cdk6/CyclinD3, Rb substrate, [33P]-ATP filter plate; format: biochemical; conditions: 25 μM ATP, read-out: Cdk 6 IC50
Summary of the method: as §1

Cdk6/CyclinD3, sequence (Q00534 whole entry): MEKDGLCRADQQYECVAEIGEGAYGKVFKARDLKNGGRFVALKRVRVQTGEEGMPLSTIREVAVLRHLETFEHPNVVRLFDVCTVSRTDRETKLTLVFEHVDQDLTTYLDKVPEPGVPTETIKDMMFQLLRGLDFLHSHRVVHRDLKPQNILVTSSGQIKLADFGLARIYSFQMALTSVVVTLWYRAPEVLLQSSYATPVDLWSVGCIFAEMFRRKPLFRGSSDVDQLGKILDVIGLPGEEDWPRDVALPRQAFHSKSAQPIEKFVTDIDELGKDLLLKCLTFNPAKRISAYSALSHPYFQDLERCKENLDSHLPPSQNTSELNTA
Cdk6/CyclinD3, sequence (P30281 whole entry partner): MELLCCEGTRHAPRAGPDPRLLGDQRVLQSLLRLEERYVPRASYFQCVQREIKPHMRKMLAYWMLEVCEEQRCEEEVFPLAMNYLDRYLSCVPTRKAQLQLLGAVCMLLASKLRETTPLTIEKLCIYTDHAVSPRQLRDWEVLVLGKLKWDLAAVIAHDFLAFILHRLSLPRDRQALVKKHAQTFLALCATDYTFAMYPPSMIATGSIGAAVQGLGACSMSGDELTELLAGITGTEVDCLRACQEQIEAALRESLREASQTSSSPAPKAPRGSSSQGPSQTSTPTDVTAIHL
Cdk4/CyclinD1, sequence (P11802 whole entry): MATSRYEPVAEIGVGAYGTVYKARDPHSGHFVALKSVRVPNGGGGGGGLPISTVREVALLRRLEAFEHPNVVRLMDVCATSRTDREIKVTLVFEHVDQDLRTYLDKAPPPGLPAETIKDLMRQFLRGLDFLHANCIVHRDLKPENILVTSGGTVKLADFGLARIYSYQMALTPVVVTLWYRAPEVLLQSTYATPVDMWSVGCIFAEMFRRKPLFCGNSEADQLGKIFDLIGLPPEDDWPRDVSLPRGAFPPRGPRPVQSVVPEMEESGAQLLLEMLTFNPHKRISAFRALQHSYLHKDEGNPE
Cdk4/CyclinD1, sequence (P24385 whole entry partner): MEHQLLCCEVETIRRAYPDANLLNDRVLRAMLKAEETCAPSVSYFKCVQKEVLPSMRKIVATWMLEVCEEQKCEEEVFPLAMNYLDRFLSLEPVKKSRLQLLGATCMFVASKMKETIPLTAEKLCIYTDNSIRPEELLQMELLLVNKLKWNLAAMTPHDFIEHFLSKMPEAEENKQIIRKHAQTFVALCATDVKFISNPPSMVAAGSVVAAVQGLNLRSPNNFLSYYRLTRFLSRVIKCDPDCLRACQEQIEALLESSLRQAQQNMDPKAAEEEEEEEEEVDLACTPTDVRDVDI

Structure (SMILES)	IC50 (Cdk4/CyclinD1) [nM]	IC50 (Cdk6/CyclinD3) [nM]
CN(C)C1CC2CCC(C1)N2c1ccc(Nc2ncc3c4ccncc4n(C4CCCC4)c3n2)nc1 (stereo not drawn) [Example 158, 9-cyclopentyl-N-(5-(3-(dimethylamino)-8-azabicyclo[321]oct-8-yl)-2-pyridinyl)-9H-pyrido[4′,3′:4,5]pyrrolo[2,3-d]pyrimidin-2-amine]	5.4	5.3
CC(C)n1c2cnccc2c2cnc(Nc3ccc(N4CCC(N(C)C)CC4)nn3)nc21 [Example 160, N-(6-(4-(Dimethylamino)-1-piperidinyl)-3-pyridazinyl)-9-(1-methylethyl)-9H-pyrido[4′,3′:4,5]pyrrolo[2,3-d]pyrimidin-2-amine]	2.5	4.8
CCC(CC)n1c2cnccc2c2cnc(Nc3ccc(N4CC[C@@H](O)C4)nn3)nc21 [Example 162, (3R)-1-(6-((9-(1-Ethylpropyl)-9H-pyrido[4′,3′:4,5]pyrrolo[2,3-d]pyrimidin-2-yl)-amino)-3-pyridazinyl)-3-pyrrolidinol]	10000	110
c1cc(Nc2ncc3c4sncc4n(C4CCCC4)c3n2)ncc1N1CCNCC1 [Example 168, 4-Cyclopentyl-N-(5-(1-piperazinyl)-2-pyridinyl)-4H-isothiazolo[5′,4′:4,5]pyrrolo[2,3-d]pyrimidin-6-amine]	10000	10000
CN(C)C1CCN(c2ccc(Nc3ncc4c5ccnc(F)c5n(CC5CC5)c4n3)nn2)CC1 [Example 169]	140	150
O[C@H]1CCN(Cc2csc(Nc3ncc4c5ccnc(F)c5n(C5CCCC5)c4n3)n2)C1 [Example 181, (3S)-1-((2-((9-Cyclopentyl-8-fluoro-9H-pyrido[4′,3′:4,5]pyrrolo[2,3-d]pyrimidin-2-yl)amino)-1,3-thiazol-4-yl)methyl)-3-pyrrolidinol]	15	26
COc1ccc2c3cnc(Nc4ccc(N5CCNCC5)cn4)nc3n(C3CCCC3)c2n1 [Example 182, 9-Cyclopentyl-7-methoxy-N-(5-(1-piperazinyl)-2-pyridinyl)-9H-pyrido[3′,2′:4,5]pyrrolo[2,3-d]pyrimidin-2-amine]	113	16
Oc1ccc2c3cnc(Nc4ccc(N5CCNCC5)cn4)nc3n(C3CCCC3)c2n1 [Example 183, 9-Cyclopentyl-2-((5-(1-piperazinyl)-2-pyridinyl)amino)-9H-pyrido[3′,2′:4,5]pyrrolo[2,3-d]pyrimidin-7-ol]	142	104
Cn1c(=O)ccc2c3cnc(Nc4ccc(N5CCNCC5)cn4)nc3n(C3CCCC3)c21 [Example 184, 9-Cyclopentyl-8-methyl-2-((5-(1-piperazinyl)-2-pyridinyl)amino)-8,9-dihydro-7H-pyrido[3′,2′:4,5]pyrrolo[2,3-d]pyrimidin-7-one]	8.6	31
Cn1c(=O)ccc2c3cnc(Nc4ccc(N5CC[C@@H](O)C5)cn4)nc3n(C3CCCC3)c21 [Example 185, 9-Cyclopentyl-2-((5-((3R)-3-hydroxy-1-pyrrolidinyl)-2-pyridinyl)amino)-8-methyl-8,9-dihydro-7H-pyrido[3′,2′:4,5]pyrrolo[2,3-d]pyrimidin-7-one]	145	149
OCC1CCN(c2ccc(Nc3ncc4c5ccnc(F)c5n(C5CCCC5)c4n3)nc2)CC1 [Example 187, (1-(6-((9-Cyclopentyl-8-fluoro-9H-pyrido[4′,3′:4,5]pyrrolo[2,3-d]pyrimidin-2-yl)amino)-3-pyridinyl)-4-piperidinyl)methanol]	2.9	2.8
N#Cc1nccc2c3cnc(Nc4ccc(N5CCNCC5)cn4)nc3n(C3CCCC3)c12 [Example 188, 9-Cyclopentyl-2-((5-(1-piperazinyl)-2-pyridinyl)amino)-9H-pyrido[4′,3′:4,5]pyrrolo[2,3-d]pyrimidine-8-carbonitrile]	27	13.4
CC1CN(c2ccc(Nc3ncc4c5ccnc(F)c5n(C5CCCC5)c4n3)nc2)CC(C)N1 (stereo not drawn) [Example 189, 9-Cyclopentyl-N-(5-(3,5-dimethyl-1-piperazinyl)-2-pyridinyl)-8-fluoro-9H-pyrido[4′,3′:4,5]pyrrolo[2,3-d]pyrimidin-2-amine]	20	22
OCCC1CCN(c2ccc(Nc3ncc4c5ccnc(F)c5n(C5CCCC5)c4n3)nc2)CC1 [Example 190, 2-(1-(6-((9-Cyclopentyl-8-fluoro-9H-pyrido[4′,3′:4,5]pyrrolo[2,3-d]pyrimidin-2-yl)amino)-3-pyridinyl)-4-piperidinyl)ethanol]	6.4	7.6
c1cc2c3cnc(Nc4ccc(N5CCNCC5)cn4)nc3n(C3CCCC3)c2nn1 [Example 200, 9-Cyclopentyl-N-(5-(1-piperazinyl)-2-pyridinyl)-9H-pyrimido[5′,4′:4,5]pyrrolo[2,3-c]pyridazin-7-amine]	36	13
CC1(C)CCC(n2c3cnccc3c3cnc(Nc4ccc(N5CCNCC5)cn4)nc32)CC1 [Example 204, 9-(4,4-dimethylcyclohexyl)-N-(5-(1-piperazinyl)-2-pyridinyl)-9H-pyrido[4′,3′:4,5]pyrrolo[2,3-d]pyrimidin-2-amine]	3.5	1.1
Fc1nccc2c3cnc(Nc4ccc(CN5CCNCC5)cn4)nc3n(C3CCCC3)c12 [Example 213, 9-cyclopentyl-8-fluoro-N-(5-(1-piperazinylmethyl)-2-pyridinyl)-9H-pyrido[4′,3′:4,5]pyrrolo[2,3-d]pyrimidin-2-amine]	203	52
OC1CCCN(Cc2ccc(Nc3ncc4c5ccncc5n(C5CCCC5)c4n3)nc2)C1 (stereo not drawn) [Example 216, 1-((6-((9-cyclopentyl-9H-pyrido[4′,3′:4,5]pyrrolo[2,3-d]pyrimidin-2-yl)amino)-3-pyridinyl)methyl)-3-piperidinol]	10	15
CCOC(=O)CN1CCN(c2ccc(Nc3ncc4c5ccncc5n(C5CCCC5)c4n3)nn2)CC1 [Example 217, ethyl (4-(6-((9-cyclopentyl-9H-pyrido[4′,3′:4,5]pyrrolo[2,3-d]pyrimidin-2-yl)amino)-3-pyridazinyl)-1-piperazinyl)acetate]	3.6	9.8
O=C(O)CN1CCN(c2ccc(Nc3ncc4c5ccncc5n(C5CCCC5)c4n3)nn2)CC1 [Example 218, (4-(6-((9-cyclopentyl-9H-pyrido[4′,3′:4,5]pyrrolo[2,3-d]pyrimidin-2-yl)amino)-3-pyridazinyl)-1-piperazinyl)acetic acid]	1.39	3.6
O=C(c1ccc(Nc2ncc3c4ccncc4n(C4CCCC4)c3n2)nc1)N1CCNCC1 [Example 221, 9-cyclopentyl-N-(5-(1-piperazinylcarbonyl)-2-pyridinyl)-9H-pyrido[4′,3′:4,5]pyrrolo[2,3-d]pyrimidin-2-amine]	1.4	8

Continued by falling IC50 (Cdk4/CyclinD1), values first:

IC50 (Cdk4/CyclinD1) [nM]	IC50 (Cdk6/CyclinD3) [nM]	Structure (SMILES)
141	520	COc1cc2c3cnc(Nc4ccc(N5CCNCC5)cn4)nc3n(C3CCCC3)c2nn1 [Example 202, 9-cyclopentyl-3-methoxy-N-(5-(1-piperazinyl)-2-pyridinyl)-9H-pyrimido[5′,4′:4,5]pyrrolo[2,3-c]pyridazin-7-amine]
17	16	CCC(CC)n1c2cnccc2c2cnc(Nc3ccc(N4CCC(N(C)C)CC4)nn3)nc21 [Example 163, N-(6-(4-(Dimethylamino)-1-piperidinyl)-3-pyridazinyl)-9-(1-ethylpropyl)-9H-pyrido[4′,3′:4,5]pyrrolo[2,3-d]pyrimidin-2-amine]
14	21	Oc1nccc2c3cnc(Nc4ccc(CN5CCNCC5)cn4)nc3n(C3CCCC3)c12 [Example 214, 9-cyclopentyl-2-((5-(1-piperazinylmethyl)-2-pyridinyl)amino)-9H-pyrido[4′,3′:4,5]pyrrolo[2,3-d]pyrimidin-8-ol]
8.5	17	O[C@H]1CCN(Cc2csc(Nc3ncc4c5ccncc5n(C5CCCC5)c4n3)n2)C1 [Example 165, (3S)-1-((2-((9-Cyclopentyl-9H-pyrido[4′,3′:4,5]pyrrolo[2,3-d]pyrimidin-2-yl)amino)-1,3-thiazol-4-yl)methyl)-3-pyrrolidinol]
5.3	11	CCOC(=O)CN1CCN(Cc2ccc(Nc3ncc4c5ccncc5n(C5CCCC5)c4n3)nc2)CC1 [Example 219, Ethyl (4-((6-((9-cyclopentyl-9H-pyrido[4′,3′:4,5]pyrrolo[2,3-d]pyrimidin-2-yl)amino)-3-pyridinyl)methyl)-1-piperazinyl)acetate]
4.4	8.2	OC1CCN(Cc2ccc(Nc3ncc4c5ccncc5n(C5CCCC5)c4n3)nc2)CC1 [Example 215, 1-((6-((9-cyclopentyl-9H-pyrido[4′,3′:4,5]pyrrolo[2,3-d]pyrimidin-2-yl)amino)-3-pyridinyl)methyl)-4-piperidinol]
3.6	16	CCC(CC)n1c2cnccc2c2cnc(Nc3ccc(N4CCNCC4)cn3)nc21 [Example 161, 9-(1-Ethylpropyl)-N-(5-(1-piperazinyl)-2-pyridinyl)-9H-pyrido[4′,3′:4,5]pyrrolo[2,3-d]pyrimidin-2-amine]
3.6	6.2	c1cc2c3cnc(Nc4nc(CN5CCNCC5)cs4)nc3n(C3CCCC3)c2cn1 [Example 164, 9-Cyclopentyl-N-(4-(1-piperazinylmethyl)-1,3-thiazol-2-yl)-9H-pyrido-[4′,3′:4,5]pyrrolo[2,3-d]pyrimidin-2-amine]
1	3.3	O=C(O)CN1CCN(Cc2ccc(Nc3ncc4c5ccncc5n(C5CCCC5)c4n3)nc2)CC1 [Example 220, (4-((6-((9-cyclopentyl-9H-pyrido[4′,3′:4,5]pyrrolo[2,3-d]pyrimidin-2-yl)amino)-3-pyridinyl)methyl)-1-piperazinyl)acetic acid]
